The assay deals with 3T3 proliferation. The assay is described as follows: IGF-1-induced DNA synthesis (3H-thymidine incorporation). The settings on record: Rattus norvegicus; activated overnight with 50 ng/mL IGF-1; read-out: inhibited 3T3 proliferation (IC50, thymidine incorporation). The format is cell-based. Here is the method: Human tumor cell lines or a rat fibroblast cell line are plated out in flat-well plates in complete medium and allowed to adhere overnight. The cells are then starved in medium containing 0.1% bovine serum albumin (BSA) overnight, pre-incubated for 1 h with or without dilutions of compound, then activated overnight with 50 ng/mL insulin-like growth factor (IGF-1). Proliferation is determined by the level of ^3H-thymidine incorporation into DNA. IC50's are determined by comparing the level of thymidine incorporation found in the presence of compound compared to controls.

Here are results for four compounds from patent US7115617B2, “Amino-substituted pyrimidinyl derivatives and methods of use” (Amgen Inc., priority 2001, dated 2006).

With `COc1cc(Nc2nccc(Nc3cc(C4CCCCC4)no3)n2)cc(OC)c1OC` [Example 17, N^2-(3,4,5-Trimethoxyphenyl)-N^4-(3-cyclohexylisoxazol-5-yl)-2,4-pyrimidinediamine], the IC50 is under 150 nM. On to `COc1cc(Nc2nccc(Nc3cc(-c4ccccc4)on3)n2)ccc1N1CCOCC1` [Example 14, N^2-(3-Methoxy-4-morpholin-4-yl-phenyl)-N^4-(5-phenyl-isoxazol-3-yl)-pyrimidine-2,4-diamine], for which the IC50 was under 150 nM. Take `COc1cc(Nc2nccc(Nc3cc(-c4ccccc4)on3)n2)cc(OC)c1OC` [Example 15, N^2-(3,4,5-Trimethoxyphenyl)-N^4-(5-phenylisoxazol-3-yl)-2,4-pyrimidinediamine]: the IC50 is under 150 nM. Take `COc1cc(C)c(Nc2nccc(Nc3cc(C45CC6CC(CC(C6)C4)C5)on3)n2)cc1OC` [Example 18, N^2-(4,5-Dimethoxy-2-methylphenyl)-N^4-(5-adamantylisoxazol-3-yl)-2,4-pyrimidinediamine]: the IC50 is under 150 nM.
